Results published in paper PMC3411110, “AdpA, key regulator for morphological differentiation regulates bacterial chromosome replication” (Open Biology, 2012).

Tests used:
AdpA (AdpAHis6) [1] = target: T1, AdpA (AdpAHis6) (Streptomyces coelicolor, UniProt Q9L062); assay: effect on AdpA-oriC complex formation; details: inhibits DNA binding; direct ADP binding not measured
AdpA (AdpAHis6) [2] = target: T1, AdpA (AdpAHis6); assay: SPR of AdpA on immobilised oriC DNA; glutaraldehyde cross-linking of AdpA-oriC complexes; details: 3 mM ATP in SPR, increasing ATP in cross-linking with 100 nM AdpA; HBS200 buffer pH 7.4, 10 mM MgOAc; 283-bp oriC fragment; inhibits DNA binding; direct ATP binding not measured
DnaA (DnaAHis6) = DnaA (DnaAHis6) (Streptomyces coelicolor, UniProt P27902); assay: SPR of DnaA on immobilised oriC DNA with and without ATP; details: 3 mM ATP; HBS200 buffer pH 7.4, 10 mM MgOAc; 283-bp oriC fragment; promotes DNA binding; direct ATP binding not measured
DnaA (DnaAHis6), sequence (P27902 whole entry, the tested form may be a part): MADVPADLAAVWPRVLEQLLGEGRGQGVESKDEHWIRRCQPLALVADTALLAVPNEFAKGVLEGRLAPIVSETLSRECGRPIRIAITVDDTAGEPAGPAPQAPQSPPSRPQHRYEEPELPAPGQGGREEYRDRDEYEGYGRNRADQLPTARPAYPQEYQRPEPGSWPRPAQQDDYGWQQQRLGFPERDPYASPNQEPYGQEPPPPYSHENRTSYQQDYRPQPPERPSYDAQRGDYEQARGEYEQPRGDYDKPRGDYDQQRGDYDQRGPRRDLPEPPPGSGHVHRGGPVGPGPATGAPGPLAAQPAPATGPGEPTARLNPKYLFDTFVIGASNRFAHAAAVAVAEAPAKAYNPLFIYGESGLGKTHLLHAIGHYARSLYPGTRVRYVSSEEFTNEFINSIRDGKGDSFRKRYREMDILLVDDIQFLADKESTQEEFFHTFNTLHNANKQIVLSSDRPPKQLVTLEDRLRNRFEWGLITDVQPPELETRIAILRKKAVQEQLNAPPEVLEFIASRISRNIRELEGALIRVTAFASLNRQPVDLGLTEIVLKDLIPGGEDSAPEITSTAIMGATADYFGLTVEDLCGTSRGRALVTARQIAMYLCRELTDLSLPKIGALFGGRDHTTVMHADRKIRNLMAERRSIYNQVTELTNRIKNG

T1 sequence (Q9L062 entry or part of it): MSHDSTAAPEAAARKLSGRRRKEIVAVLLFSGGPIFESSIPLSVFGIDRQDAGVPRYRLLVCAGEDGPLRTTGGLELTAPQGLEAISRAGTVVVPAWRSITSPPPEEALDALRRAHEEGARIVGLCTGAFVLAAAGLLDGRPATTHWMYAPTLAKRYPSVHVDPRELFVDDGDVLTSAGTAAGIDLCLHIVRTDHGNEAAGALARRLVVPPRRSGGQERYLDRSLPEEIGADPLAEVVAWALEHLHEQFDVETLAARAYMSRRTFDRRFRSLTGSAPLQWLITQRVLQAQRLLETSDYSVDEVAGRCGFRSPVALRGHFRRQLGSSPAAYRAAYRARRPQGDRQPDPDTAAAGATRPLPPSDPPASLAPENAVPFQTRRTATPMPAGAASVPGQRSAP

Compound	effect on AdpA-oriC complex formation (AdpA (AdpAHis6) [1])	SPR of AdpA on immobilised oriC DNA; glutaraldehyde cross-linking of AdpA-oriC c (AdpA (AdpAHis6) [2])	SPR of DnaA on immobilised oriC DNA with and without ATP (DnaA (DnaAHis6))
Nc1ncnc2c1ncn2[C@@H]1O[C@H](COP(=O)(O)OP(=O)(O)O)[C@@H](O)[C@H]1O [ADP]	a similar effect was also observed in the presence of ADP		
Nc1ncnc2c1ncn2[C@@H]1O[C@H](COP(=O)(O)OP(=O)(O)OP(=O)(O)O)[C@@H](O)[C@H]1O [ATP]		ATP at the same concentration used for DnaA-binding experiments nearly completely abolished binding of AdpA	binds DnaA box(es), particularly weak ones, more efficiently in the presence of ATP
